Laboratory results published in ChEMBL document CHEMBL1201862, “PubChem BioAssay data set” (2004).
Activity calls are given as the source filed them. For most assays here, no stated cut-off is given here; in the data, active = IC50 of 10 µM or less and inactive = more.

What was measured:
Format in all cases: functional
Orexin receptor type 2 [1] = target: T1, Orexin receptor type 2 (Homo sapiens, UniProt O43614); experiment: Counterscreen assay for antagonists of the orexin 1 receptor (OX1R; HCRTR1): Fluorescence-based cell-based dose response assay for antagonists of the orexin 2 receptor (OX2R; HCRTR2), run by assay provider.
T1 sequence (O43614 whole entry): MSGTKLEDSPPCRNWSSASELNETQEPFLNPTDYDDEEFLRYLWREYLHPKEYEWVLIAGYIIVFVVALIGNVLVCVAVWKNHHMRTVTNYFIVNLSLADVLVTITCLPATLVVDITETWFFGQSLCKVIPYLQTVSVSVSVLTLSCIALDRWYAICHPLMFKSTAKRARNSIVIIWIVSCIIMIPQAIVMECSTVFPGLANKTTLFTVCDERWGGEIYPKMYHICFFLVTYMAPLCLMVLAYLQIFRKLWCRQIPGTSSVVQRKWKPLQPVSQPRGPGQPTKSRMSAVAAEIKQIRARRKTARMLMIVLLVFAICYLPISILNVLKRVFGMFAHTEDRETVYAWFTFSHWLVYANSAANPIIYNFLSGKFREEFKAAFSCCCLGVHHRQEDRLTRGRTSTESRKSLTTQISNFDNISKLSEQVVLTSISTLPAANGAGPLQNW

CHO-K1 = experiment: (§1) Counterscreen for antagonists of the orexin 1 receptor (OX1R; HCRTR1): Homogeneous time resolved fluorescence (HTRF)-based cell-based dose response assay to identify antagonists of the parental CHO-K1 cell line. [Related pubchem assays (depositor defined):AID434989, AID435008, AID463079, AID485270, AID492963, AID492964, AID492965, AID493232, AID504699, AID504701]; conditions: Cricetulus griseus
Orexin receptor type 2 [2] = target: T1, Orexin receptor type 2; experiment: Counterscreen assay for antagonists of the orexin 1 receptor (OX1R; HCRTR1): Homogeneous Time Resolved Fluorescence (HTRF)-based cell-based dose response assay for antagonists of the orexin 2 receptor (OX2R; HCRTR2), run by assay provider.
[3] = target: T2, Orexin/Hypocretin receptor type 1 (Homo sapiens, UniProt O43613); experiment: Homogeneous Time Resolved Fluorescence (HTRF)-based cell-based high throughput dose response assay for antagonists of the orexin 1 receptor (OX1R; HCRTR1). [Related pubchem assays (depositor defined):AID434989, AID435008, AID463079, AID485270, AID492963, AID492964, AID492965, AID493232, AID504717, AID504718]
T2 sequence (O43613 whole entry): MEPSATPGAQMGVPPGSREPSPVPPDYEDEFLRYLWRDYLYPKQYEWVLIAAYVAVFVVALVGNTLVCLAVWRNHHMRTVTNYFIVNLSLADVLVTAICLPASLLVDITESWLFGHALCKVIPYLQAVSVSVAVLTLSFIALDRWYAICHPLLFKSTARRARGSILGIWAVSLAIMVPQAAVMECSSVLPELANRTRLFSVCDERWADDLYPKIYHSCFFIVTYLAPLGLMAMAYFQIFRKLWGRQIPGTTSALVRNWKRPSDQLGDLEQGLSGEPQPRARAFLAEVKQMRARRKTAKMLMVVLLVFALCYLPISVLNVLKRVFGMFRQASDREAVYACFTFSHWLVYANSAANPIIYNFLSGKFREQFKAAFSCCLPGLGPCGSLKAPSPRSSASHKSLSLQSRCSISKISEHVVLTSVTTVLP

[4] = target: T2, Orexin/Hypocretin receptor type 1; experiment: Fluorescence-based cell-based high throughput dose response assay for antagonists of the orexin 1 receptor (OX1R; HCRTR1). [Related pubchem assays (depositor defined):AID434989, AID435008, AID463079, AID485270, AID492963, AID492964, AID492965, AID493232, AID504717, AID504718]
[5] = as §1, with “Fluorescence-based” for “Homogeneous time resolved fluorescence (HTRF)-based”, “cell-based high throughput” for “cell-based”, “CHO” for “CHO-K1”

SMILES	IC50 (Orexin receptor type 2 [1])	IC50 (CHO-K1)	IC50 (Orexin receptor type 2 [2])	IC50 [3]	IC50 [4]	IC50 [5]
CCOC(=O)C1=C(COC(=O)/C=C/c2cccc(OC)c2)NC(=O)NC1C (configuration not stated)	> 88.8 µM (inactive)	> 66.2 µM (inactive)	> 50 µM (inactive)	8.33 µM (active)	15.3 µM (inactive)	> 49.8 µM (inactive)
CCSC1=C(C#N)C(c2ccccc2Cl)C(C(=O)c2cccs2)C(O)(C(F)(F)F)N1 (configuration not stated)	20 µM (inactive)	> 66.2 µM (inactive)	> 50 µM (inactive)	0.174 µM (active)	0.878 µM (active)	33.9 µM (inactive)
